Measured values as given in patent US5484801A, “Pharmaceutical composition for inhibiting HIV protease” (Abbott Laboratories, priority 1995, dated 1996).
“Also recorded” adds a separate entry of the source.

What was measured:
HIV-1 protease = HIV-1 protease (HIV-1 M:B_HXB2R, UniProt P04585); type: biochemical
[1] = Oral bioavailability in dogs, Protocol A (solid dosage forms); type: in vivo, beagle dogs; details: dog, plasma; unformulated solid in a capsule dosage form, 5 mg/kg oral dose in dogs
Protocol: Each dog received a single solid dosage form corresponding to a 5 mg/kg dose of the drug.

HIV-2 protease = test: Inhibition of HIV-2 protease; type: biochemical; details: statement in words

Compound | inhibition of HIV-1 protease (HIV-1 protease) | bioavailability [1] [%] | inhibition of HIV-2 protease (HIV-2 protease) | inhibition of HIV-2 protease (HIV-2 protease; listed as formula II)
CC(C)c1nc(CN(C)C(=O)N[C@H](C(=O)N[C@@H](Cc2ccccc2)C[C@H](O)[C@H](Cc2ccccc2)NC(=O)OCc2cncs2)C(C)C)cs1 [Compound III, (2S,3S,5S)-5-(N-(N-((N-Methyl-N-((2-isopropyl-4-thiazolyl)methyl)-amino)carbonyl)valinyl)amino)-2-(N-((5-thiazolyl)methoxycarbonyl)amino)-1,6-diphenyl-3-hydroxyhexane] | inhibitors | < 2 | inhibitors | –
CC(C)c1nc(CN(C)C(=O)NC(C(=O)NC(Cc2ccccc2)CC(O)C(Cc2ccccc2)NC(=O)OCc2cncs2)C(C)C)cs1 (stereo not drawn) [Compound II] | especially effective; also recorded: inhibitors | – | inhibitors | especially effective
